# Experimental data reported in patent publication US20050245563A1 (Millennium Pharmaceuticals, Inc., priority 2003, published 2005).
# Target: T1, human Chk1 (GST-Chk1) (Homo sapiens, UniProt O14757)
# T1 construct: made in house; host or cells: insect cells (baculovirus, Bac-to-Bac)
# T1 sequence (O14757 1-476): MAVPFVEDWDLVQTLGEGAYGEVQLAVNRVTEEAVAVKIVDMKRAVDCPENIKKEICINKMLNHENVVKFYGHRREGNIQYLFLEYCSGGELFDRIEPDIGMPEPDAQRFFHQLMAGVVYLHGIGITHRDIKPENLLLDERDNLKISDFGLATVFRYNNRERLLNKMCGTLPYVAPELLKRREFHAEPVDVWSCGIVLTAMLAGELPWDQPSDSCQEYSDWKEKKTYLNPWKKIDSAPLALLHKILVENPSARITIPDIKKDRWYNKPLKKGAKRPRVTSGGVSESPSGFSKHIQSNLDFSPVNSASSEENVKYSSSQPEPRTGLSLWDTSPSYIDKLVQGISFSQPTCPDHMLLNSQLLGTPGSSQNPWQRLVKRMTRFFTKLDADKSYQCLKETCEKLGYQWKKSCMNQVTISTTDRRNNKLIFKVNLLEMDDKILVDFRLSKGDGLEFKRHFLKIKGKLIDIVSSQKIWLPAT
# Assay: Chk1 DELFIA kinase assay (2 nM GST-Chk1, 600 μM ATP)
# Assay type: biochemical
# Settings: Biotin-GLYRSPSMPEN-amide substrate
# Procedure: Recombinant human Chk1 was expressed as a fusion protein with glutathione S-transferase at the amino-terminus (GST-Chk1) using standard baculovirus vectors and (Bac-to-Bac®) insect cell expression system purchased from GIBCO™ Invitrogen. Recombinant protein expressed in insect cells was purified using glutathione sepharose (Amersham Biotech) using standard procedures described by the manufacturer.
# Chk1 DELFIA® Kinase Assay:
# Assays (25 μL) utilized 2 nM GST-Chk1 containing 10 mM Tris, pH 7.5, 20% glycerol, 50 mM sodium chloride (NaCl), 0.01% Surfact-Amps® 20, 1 μM peptide stubstrate (Biotin-GLYRSPSMPEN-amide) (SEQ ID NO: 3), 01.% BSA, 2 mM DTT, 4% DMSO, 600 μM ATP, 10 MM MgCl2 and reacted for 50 minutes at room temperature. Reactions were terminated with 100 μL of Stop buffer containing 1% BSA, 10 mM Tris, pH 8.0, 150 mM NaCl, 100 mM EDTA. Stopped reactions (100 μL) were transferred to 96 well NeutrAvidin plates (Pierce) to capture the biotin-peptide substrate during a 30 minute room temperature incubation. Wells were washed and reacted with 100 μL PerkinElmer Wallac Assay Buffer containing 21.5 ng/ml anti-phospho-Ser216-Cdc25c rabbit polyclonal antibody from Cell Signaling Technology (Beverly, Mass.) and 292 ng/ml europium labeled anti-rabbit-IgG for 1 hour at room temperature. Wells were washed and europium released from the bound antibody by addition of Enhancement Solution (100 μL) (PerkinElmer Wallac) and detected using a Perkin Elmer Wallac Envison™ 2100 multilabel reader using standard manufacturer settings.
row,IC50,Structure (SMILES)
1,< 1 µM,"CCc1ccc2c(c1)c1n[nH]c(CCO)c1c(=O)n2CCCO [Example 363, 8-Ethyl-3-(2-hydroxy-ethyl)-5-(3-hydroxy-propyl)-2,5-dihydro-pyrazolo[4,3-c]quinolin-4-one]"
2,< 1 µM,"CCNCC(O)CCn1c(=O)c2c(C)[nH]nc2c2cc(Cl)ccc21 (centres unmarked) [Example 248, 8-Chloro-5-(4-ethylamino-3-hydroxy-butyl)-3-methyl-2,5-dihydro-pyrazolo[4,3-c]quinolin-4-one]"
3,< 1 µM,"Cc1[nH]nc2c1c(=O)n(CCCNC(=N)N)c1ccc(Cl)cc21 [Compound 253, N-[3-(8-Chloro-3-methyl-4-oxo-2,4-dihydro-pyrazolo[4,3-c]quinolin-5-yl)-propyl]-guanidine]"
4,< 1 µM,"COCCc1[nH]nc2c1c(=O)n(CCCN)c1ccc(F)cc21 [Compound 205, 5-(3-Amino-propyl)-8-fluoro-3-(2-methoxy-ethyl)-2,5-dihydro-pyrazolo[4,3-c]quinolin-4-one]"
5,< 1 µM,"Cc1[nH]nc2c1c(=O)n(CCCN)c1ccc(C#CCO)cc21 [Example 272, 5-(3-Amino-propyl)-8-(3-hydroxy-prop-1-ynyl)-3-methyl-2,5-dihydro-pyrazolo[4,3-c]quinolin-4-one]"
6,< 1 µM,"Cc1[nH]nc2c1c(=O)n(C[C@H]1CCCNC1)c1ccc(Cl)cc21 [Example 225, 8-Chloro-3-methyl-5S-piperidin-3-ylmethyl-2,5-dihydro-pyrazolo[4,3-c]quinolin-4-one]"
7,< 1 µM,"CCCOc1ccc2c(c1)c1n[nH]c(C)c1c(=O)n2CCCN [Example 258, 5-(3-Amino-propyl)-3-methyl-8-propoxy-2,5-dihydro-pyrazolo[4,3-c]quinolin-4-one]"
8,1 to 10 µM,"Cc1[nH]nc2c1c(=O)n(CCCN)c1c([N+](=O)[O-])cc(Cl)cc21 [Compound 347, 5-(3-Amino-propyl)-8-chloro-3-methyl-6-nitro-2,5-dihydro-pyrazolo[4,3-c]quinolin-4-one]"
9,< 1 µM,"Cc1[nH]nc2c1c(=O)n(CCCN)c1cc(CCCN3CCCC3)ccc21 [Example 341, 5-(3-Amino-propyl)-3-methyl-7-(3-pyrrolidin-1-yl-propyl)-2,5-dihydro-pyrazolo[4,3-c]quinolin-4-one]"
10,< 1 µM,"CCOCCc1[nH]nc2c1c(=O)n(CCCN)c1ccc(Cl)cc21 [Example 320, 5-(3-Amino-propyl)-8-chloro-3-(2-ethoxy-ethyl)-2,5-dihydro-pyrazolo[4,3-c]quinolin-4-one]"
11,< 1 µM,"Cc1[nH]nc2c1c(=O)n(CCCN)c1ccc(C#CCN3CCN(C)CC3)cc21 [Example 288, 5-(3-Amino-propyl)-3-methyl-8-[3-(4-methyl-piperazin-1-yl)-prop-1-ynyl]-2,5-dihydro-pyrazolo[4,3-c]quinolin-4-one]"
12,1 to 10 µM,"Cc1[nH]nc2c1c(=O)n(CCCN)c1ccc(CCC(=O)O)cc21 [Compound 269, 3-[5-(3-Aminopropyl)-3-methyl-4-oxo-4,5-dihydro-2H-pyrazolo[4,3-c]quinolin-8-yl]-propionic acid]"
13,< 1 µM,"COC(=O)CCc1ccc2c(c1)c1n[nH]c(C)c1c(=O)n2CCCN [Compound 268, 3-[5-(3-Amino-propyl)-3-methyl-4-oxo-4,5-dihydro-2H-pyrazolo[4,3-c]quinolin-8-yl]-propionic acid methyl ester]"
14,< 1 µM,"Cc1[nH]nc2c1c(=O)n(CCCN)c1ccc(C#Cc3ccncc3)cc21 [Example 279, 5-(3-Amino-propyl)-3-methyl-8-pyridin-4-ylethylynyl-2,5-dihydro-pyrazolo[4,3-c]quinolin-4-one]"
15,< 1 µM,"Cc1[nH]nc2c1c(=O)n(CCCN)c1ccc(NC(=O)CN(C)C)cc21 [Example 264, N-[5-(3-aminopropyl)-3-methyl-4-oxo4,5-dihydro-2H-pyrazolo[4,3-c]quinolin-8-yl]-2-dimethylaminoacetamide]"
16,< 1 µM,"Cc1[nH]nc2c1c(=O)n(CCCN)c1ccc(CCCN(C)C)cc21 [Example 296, 5-(3-Amino-propyl)-8-(3-dimethylamino-propyl)-3-methyl-2,5-dihydro-pyrazolo[4,3-c]quinolin-4-one]"

row,IC50,Structure (SMILES)
1,< 1 µM,"COC(=O)/C=C/c1ccc2c(c1)c1n[nH]c(C)c1c(=O)n2CCCN [Compound 267, 3-[5-(3-Amino-propyl)-3-methyl-4-oxo-4,5-dihydro-2H-pyrazolo[4,3-c]quinolin-8-yl]-acrylic acid methyl ester]"
2,< 1 µM,"Cc1[nH]nc2c1c(=O)n(CCCN)c1ccc(I)cc21 [Compound 208, 5-(3-Amino-propyl)-8-iodo-3-methyl-2,5-dihydro-pyrazolo[4,3-c]quinolin-4-one]"
3,1 to 10 µM,"Cc1[nH]nc2c1c(=O)n(CCCN)c1ccc(C(=O)O)cc21 [Compound 266, 5-(3-Amino-propyl)-3-methyl-4-oxo-4,5-dihydro-2H-pyrazolo[4,3-c]quinoline-8-carboxylic acid]"
4,< 1 µM,"Cc1[nH]nc2c1c(=O)n(CCCN)c1cc(C(=O)NCCN3CCCC3)ccc21 [Example 336, 5-(3-Amino-propyl)-3-methyl-4-oxo-4,5-dihydro-2H-pyrazolo[4,3-c]quinolin-7-carboxylic acid (2-pyrrolidin-1-yl-ethyl)-amide]"
5,< 1 µM,"COCC#Cc1ccc2c(c1)c1n[nH]c(C)c1c(=O)n2CCCN [Example 281, 5-(3-Amino-propyl)-8-(3-methoxy-prop-1-ynyl)-3-methyl-2,5-dihydro-pyrazolo[4,3-c]quinolin-4-one]"
6,< 1 µM,"NCCCn1c(=O)c2c(CCO)[nH]nc2c2cc(Cl)ccc21 [Compound 316, 5-(3-Amino-propyl)-8-chloro-3-(2-hydroxy-ethyl)-2,5-dihydro-pyrazolo[4,3-c]quinolin-4-one]"
7,< 1 µM,"CNCCCn1c(=O)c2c(CCOC)[nH]nc2c2cc(C)ccc21 [Example 236, 3-(2-Methoxy-ethyl)-8-methyl-5-(3-methylamino-propyl)-2,5-dihydro-pyrazolo[4,3-c]quinolin-4-one]"
8,< 1 µM,"COCCc1[nH]nc2c1c(=O)n(C[C@@H](C)CN)c1ccc(Cl)cc21 [Example 222, 5-(3-Amino-2S-methyl-propyl)-8-chloro-3-(2-methoxy-ethyl)-2,5-dihydro-pyrazolo[4,3-c]quinolin-4-one]"
9,< 1 µM,"Cc1[nH]nc2c1c(=O)n(CCCN)c1ccc(C#CCN3CCCC3)cc21 [Example 285, 5-(3-Amino-propyl)-3-methyl-8-(3-pyrrolidin-1-yl-prop-1-ynyl]-2,5-dihydro-pyrazolo[4,3-c]quinolin4-one]"
10,< 1 µM,"Cc1[nH]nc2c1c(=O)n(C[C@@H](C)CN)c1ccc(Cl)cc21 [Example 220, 5-(3-Amino-2S-methyl-propyl)-8-chloro-3-methyl-2,5-dihydro-pyrazolo[4,3-c]quinolin-4-one]"
11,< 1 µM,"Cc1[nH]nc2c1c(=O)n(CCCN)c1ccc(C#CCOc3ccccc3)cc21 [Example 280, 5-(3-Amino-propyl)-3-methyl-8-(3-phenoxy-prop-1-ynyl)-2,5-dihydro-pyrazolo[4,3-c]quinolin-4-one]"
12,< 1 µM,"Cc1[nH]nc2c1c(=O)n(CCCN)c1ccc(CCc3ccccn3)cc21 [Example 299, 5-(3-Amino-propyl)-3-methyl-8-(2-pyridin-2-yl-thyl)-2,5-dihydro-pyrazolo[4,3-c]quinolin-4-one]"
13,< 1 µM,"Cc1[nH]nc2c1c(=O)n(C)c1c(C#CCN)cc(Cl)cc21 [Example 342, 6-(3-amino-prop-1-ynyl)-8-chloro-3,5-dimethyl-2,5-dihydro-pyrazolo[4,3-c]quinolin-4-one]"
14,< 1 µM,"Cc1[nH]nc2c1c(=O)n(CCCN)c1ccc(C#CCN(C)C)cc21 [Example 284, 5-(3-Amino-propyl)-8-(3-dimethylamino-prop-1-ynyl]-3-methyl 2,5-dihydro-pyrazolo[4,3-c]quinolin-4-one]"
15,< 1 µM,"Cc1[nH]nc2c1c(=O)n(CCCNC(=O)c1ccc(Cl)cc1)c1ccc(C#CCN3CCCC3)cc21 [Example 332, 4-Chloro-N-{3-[3-methyl-4-oxo-8-(3-pyrrolidin-1-yl-prop-1-ynyl)-2,4-dihydro-pyrazolo[4,3-c]quinolin-5-yl]-propyl}-benzamide]"

row,Structure (SMILES),IC50
1,"Cc1[nH]nc2c1c(=O)n(CCCN)c1ccc(OCC(C)C)cc21 [Example 259, 5-(3-Amino-propyl)-8-isobutoxy-3-methyl-2,5-dihydro-pyrazolo[4,3-c]quinolin-4-one]",< 1 µM
